From US10670605B2, “Cysteine reactive probes and uses thereof” (The Scripps Research Institute, priority 2015, dated 2020)

Assays:
Assay in all cases: Competitive isoTOP-ABPP in situ (fragment-treated cells)
Assay type in all cases: cell-based
[1] = target: T1, cysteines in MDA-MB-231 and Ramos cells (Homo sapiens, UniProt P22307)
T1 sequence (P22307 1-547): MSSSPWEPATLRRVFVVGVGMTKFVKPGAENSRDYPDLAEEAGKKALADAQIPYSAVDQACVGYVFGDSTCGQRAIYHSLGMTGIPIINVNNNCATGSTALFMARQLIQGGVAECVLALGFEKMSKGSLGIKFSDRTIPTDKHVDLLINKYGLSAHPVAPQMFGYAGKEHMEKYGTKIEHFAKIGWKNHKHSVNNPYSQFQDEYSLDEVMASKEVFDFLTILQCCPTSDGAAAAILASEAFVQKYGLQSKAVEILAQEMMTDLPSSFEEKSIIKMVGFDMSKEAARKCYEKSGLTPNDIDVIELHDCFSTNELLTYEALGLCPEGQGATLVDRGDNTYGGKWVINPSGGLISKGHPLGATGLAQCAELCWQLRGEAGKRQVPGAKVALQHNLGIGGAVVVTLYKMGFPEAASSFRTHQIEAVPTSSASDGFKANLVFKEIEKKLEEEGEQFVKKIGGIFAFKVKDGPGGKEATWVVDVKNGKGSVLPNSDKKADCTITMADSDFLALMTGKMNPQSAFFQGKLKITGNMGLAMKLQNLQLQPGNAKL
Method: (§1) Fragments 4 and 11 were screened at 100 μM in situ. […] Site-specific engagement of electrophilic fragments was assessed by blockade of IA-alkyne probe labeling. […] Ratios for unique peptide entries were calculated for each experiment; overlapping peptides with the same modified cysteine (e.g. different charge states, MudPIT chromatographic steps or tryptic termini) were grouped together and the median ratio was reported as the final ratio (R). The peptide ratios reported by CIMAGE were further filtered to ensure the removal or correction of low quality ratios in each individual dataset. […] R values were calculated and individual datasets were filtered as described above (R value calculation and processing).

[2] = target: T2, cysteines in MDA-MB-231 and Ramos cells (Homo sapiens, UniProt P42166)
T2 sequence (P42166 1-694): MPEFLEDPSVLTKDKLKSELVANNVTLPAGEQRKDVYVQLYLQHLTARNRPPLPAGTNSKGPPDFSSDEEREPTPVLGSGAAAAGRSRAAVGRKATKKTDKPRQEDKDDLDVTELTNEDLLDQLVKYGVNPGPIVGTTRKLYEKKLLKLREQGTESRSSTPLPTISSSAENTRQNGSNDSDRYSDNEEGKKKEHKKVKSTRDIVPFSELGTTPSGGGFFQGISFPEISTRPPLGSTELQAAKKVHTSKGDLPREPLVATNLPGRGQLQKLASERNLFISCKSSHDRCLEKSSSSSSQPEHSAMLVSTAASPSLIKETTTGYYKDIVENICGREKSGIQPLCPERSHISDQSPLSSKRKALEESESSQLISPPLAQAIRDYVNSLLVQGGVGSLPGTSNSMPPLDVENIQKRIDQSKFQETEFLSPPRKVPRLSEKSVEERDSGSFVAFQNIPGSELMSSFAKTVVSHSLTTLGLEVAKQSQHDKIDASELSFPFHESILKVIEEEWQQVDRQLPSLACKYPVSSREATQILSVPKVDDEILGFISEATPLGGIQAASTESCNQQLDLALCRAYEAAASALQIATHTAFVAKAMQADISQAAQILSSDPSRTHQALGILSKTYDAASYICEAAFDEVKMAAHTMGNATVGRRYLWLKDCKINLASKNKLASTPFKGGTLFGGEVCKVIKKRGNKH
Method: as §1

[3] = target: T3, cysteines in MDA-MB-231 and Ramos cells (Homo sapiens, UniProt Q9NQR4)
T3 sequence (Q9NQR4 1-276): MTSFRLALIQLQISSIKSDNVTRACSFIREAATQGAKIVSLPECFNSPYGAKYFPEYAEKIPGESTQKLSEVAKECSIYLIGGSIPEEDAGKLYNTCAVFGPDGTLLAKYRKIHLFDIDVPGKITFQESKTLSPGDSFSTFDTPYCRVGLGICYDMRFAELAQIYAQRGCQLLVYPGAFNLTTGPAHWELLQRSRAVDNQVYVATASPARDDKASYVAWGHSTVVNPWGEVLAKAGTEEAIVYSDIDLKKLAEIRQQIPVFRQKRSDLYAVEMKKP
Method: as §1

[4] = target: T4, cysteines in MDA-MB-231 and Ramos cells (Homo sapiens, UniProt Q9Y3D0)
T4 sequence (Q9Y3D0 1-163): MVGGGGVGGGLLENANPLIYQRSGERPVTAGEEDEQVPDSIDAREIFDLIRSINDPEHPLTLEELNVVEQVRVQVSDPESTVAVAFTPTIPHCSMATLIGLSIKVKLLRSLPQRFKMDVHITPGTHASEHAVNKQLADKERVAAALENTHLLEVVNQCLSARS
Method: as §1

[5] = target: T5, cysteines in MDA-MB-231 and Ramos cells (Homo sapiens, UniProt P13667)
T5 sequence (P13667 21-645): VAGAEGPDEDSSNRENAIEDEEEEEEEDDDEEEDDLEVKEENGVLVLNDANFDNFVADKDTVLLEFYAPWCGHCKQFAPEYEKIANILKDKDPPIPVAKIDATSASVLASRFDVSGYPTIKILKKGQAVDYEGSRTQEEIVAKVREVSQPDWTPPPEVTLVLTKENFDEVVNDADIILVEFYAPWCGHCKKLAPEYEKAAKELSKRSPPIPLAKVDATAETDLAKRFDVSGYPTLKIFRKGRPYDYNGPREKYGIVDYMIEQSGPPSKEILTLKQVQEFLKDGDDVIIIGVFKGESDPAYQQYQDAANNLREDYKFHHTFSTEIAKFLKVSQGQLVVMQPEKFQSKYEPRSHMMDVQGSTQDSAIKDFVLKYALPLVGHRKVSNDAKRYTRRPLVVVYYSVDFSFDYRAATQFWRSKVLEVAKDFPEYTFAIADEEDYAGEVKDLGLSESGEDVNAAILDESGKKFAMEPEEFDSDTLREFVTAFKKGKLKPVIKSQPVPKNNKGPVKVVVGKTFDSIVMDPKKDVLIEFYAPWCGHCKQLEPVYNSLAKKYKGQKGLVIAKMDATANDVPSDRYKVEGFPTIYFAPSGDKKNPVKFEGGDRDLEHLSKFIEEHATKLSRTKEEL
Method: as §1

COc1ccc2c(c1)CCCN2C(=O)CCl [compound 2]
isoTOP-ABPP reactivity P22307_C71 SCP2 ([1]; 200 μM, insitu, 231): 3.2 | isoTOP-ABPP reactivity P22307_C307 SCP2 ([1]; 200 μM, insitu, 231): 20.0 | isoTOP-ABPP reactivity P42166_C341 TMPO ([2]; 200 μM, insitu, 231): 10.4 | isoTOP-ABPP reactivity P42166_C561 TMPO ([2]; 200 μM, insitu, 231): 8.3 | isoTOP-ABPP reactivity P42166_C629 TMPO ([2]; 200 μM, insitu, 231): 4.4 | isoTOP-ABPP reactivity Q9NQR4_C153 N1T2 ([3]; 200 μM, insitu, 231): 13.1 | isoTOP-ABPP reactivity Q9Y3D0_C93 FAM96B ([4]; 200 μM, insitu, 231): 20.0 | isoTOP-ABPP reactivity P13667_C206 PDIA4 ([5]; 200 μM, insitu, 231): 2.6 | isoTOP-ABPP reactivity P13667_C555 PDIA4 ([5]; 200 μM, insitu, 231): 3.2

COc1ccc(C2CC(c3cccs3)=NN2C(=O)CCl)cc1 (stereo not shown) [compound 4]
isoTOP-ABPP reactivity P22307_C71 SCP2 ([1]; 100 μM in situ 231): 2.7 | isoTOP-ABPP reactivity P22307_C94 SCP2 ([1]; 100 μM in situ 231): 20.0 | isoTOP-ABPP reactivity P22307_C307 SCP2 ([1]; 100 μM in situ 231): 20.0 | isoTOP-ABPP reactivity P42166_C561 TMPO ([2]; 100 μM in situ 231): 20.0 | isoTOP-ABPP reactivity Q9NQR4_C153 N1T2 ([3]; 100 μM in situ 231): 0.7 | isoTOP-ABPP reactivity Q9Y3D0_C93 FAM96B ([4]; 100 μM in situ 231): 20.0 | isoTOP-ABPP reactivity P13667_C206 PDIA4 ([5]; 100 μM in situ 231): 6.8 | isoTOP-ABPP reactivity P13667_C555 PDIA4 ([5]; 100 μM in situ 231): 9.0

COc1cc2c(cc1OC)CN(C(=O)CCl)CC2 [compound 8]
isoTOP-ABPP reactivity P22307_C71 SCP2 ([1]; 200 μM, insitu, 231): 20.0 | isoTOP-ABPP reactivity P22307_C307 SCP2 ([1]; 200 μM, insitu, 231): 20.0 | isoTOP-ABPP reactivity P42166_C341 TMPO ([2]; 200 μM, insitu, 231): 4.4 | isoTOP-ABPP reactivity P42166_C561 TMPO ([2]; 200 μM, insitu, 231): 4.6 | isoTOP-ABPP reactivity P42166_C629 TMPO ([2]; 200 μM, insitu, 231): 1.7 | isoTOP-ABPP reactivity P42166_C684 TMPO ([2]; 200 μM, insitu, 231): 4.6 | isoTOP-ABPP reactivity Q9NQR4_C153 N1T2 ([3]; 200 μM, insitu, 231): 20.0 | isoTOP-ABPP reactivity P13667_C206 PDIA4 ([5]; 200 μM, insitu, 231): 15.2 | isoTOP-ABPP reactivity P13667_C555 PDIA4 ([5]; 200 μM, insitu, 231): 20.0

O=C(CCl)N1CCC(Cc2ccccc2)CC1 [compound 9]
isoTOP-ABPP reactivity P42166_C561 TMPO ([2]; 200 μM, insitu, 231): 3.7 | isoTOP-ABPP reactivity Q9NQR4_C153 N1T2 ([3]; 200 μM, insitu, 231): 20.0 | isoTOP-ABPP reactivity P13667_C206 PDIA4 ([5]; 200 μM, insitu, 231): 1.1 | isoTOP-ABPP reactivity P13667_C555 PDIA4 ([5]; 200 μM, insitu, 231): 1.4

O=C(CCl)N1CCN(S(=O)(=O)c2ccccc2F)CC1 [compound 10]
isoTOP-ABPP ratio P22307_C71 ([1]; 200 μM, insitu, 231): 8.3 | isoTOP-ABPP ratio P42166_C561 ([2]; 200 μM, insitu, 231): 17.8 | isoTOP-ABPP ratio, cysteine P42166_C518 ([2]; 200 μM, insitu, 231): 4.2 | isoTOP-ABPP ratio, cysteine P42166_C629 ([2]; 200 μM, insitu, 231): 2.5 | isoTOP-ABPP ratio, cysteine P42166_C684 ([2]; 200 μM, insitu, 231): 5.2 | isoTOP-ABPP ratio Q9NQR4_C153 ([3]; 200 μM, insitu, 231): 20.0 | isoTOP-ABPP ratio Q9Y3D0_C93 ([4]; 200 μM, insitu, 231): 2.1 | isoTOP-ABPP ratio P13667_C206 ([5]; 200 μM, insitu, 231): 3.8 | isoTOP-ABPP ratio P13667_C555 ([5]; 200 μM, insitu, 231): 3.3 | isoTOP-ABPP ratio P13667_C555 ([5]; 200 μM, insitu, ramos): 1.4

Cn1cc(S(=O)(=O)N2CCOCC2)cc1C(=O)NC(=O)CCl [compound 11]
isoTOP-ABPP ratio P22307_C71 ([1]; 100 μM in situ 231): 2.0 | isoTOP-ABPP ratio, cysteine P22307_C94 ([1]; 100 μM in situ 231): 3.3 | isoTOP-ABPP ratio, cysteine P22307_C307 ([1]; 100 μM in situ 231): 2.9 | isoTOP-ABPP ratio P42166_C341 ([2]; 100 μM in situ 231): 0.8 | isoTOP-ABPP ratio P42166_C561 ([2]; 100 μM in situ 231): 0.6 | isoTOP-ABPP ratio, cysteine P42166_C518 ([2]; 100 μM in situ 231): 0.8 | isoTOP-ABPP ratio, cysteine P42166_C629 ([2]; 100 μM in situ 231): 0.6 | isoTOP-ABPP ratio, cysteine P42166_C684 ([2]; 100 μM in situ 231): 0.7 | isoTOP-ABPP ratio Q9NQR4_C153 ([3]; 100 μM in situ 231): 3.7 | isoTOP-ABPP ratio Q9Y3D0_C93 ([4]; 100 μM in situ 231): 0.9 | isoTOP-ABPP ratio P13667_C206 ([5]; 100 μM in situ 231): 4.1

O=C(CCl)NC(=O)NC12CC3CC(CC(C3)C1)C2 [compound 12]
isoTOP-ABPP ratio P22307_C71 ([1]; 200 μM, insitu, 231): 3.7 | isoTOP-ABPP ratio, cysteine P22307_C94 ([1]; 200 μM, insitu, 231): 20.0 | isoTOP-ABPP ratio, cysteine P22307_C307 ([1]; 200 μM, insitu, 231): 20.0 | isoTOP-ABPP ratio P42166_C561 ([2]; 200 μM, insitu, 231): 16.1 | isoTOP-ABPP ratio Q9NQR4_C153 ([3]; 200 μM, insitu, 231): 0.9 | isoTOP-ABPP ratio P13667_C206 ([5]; 200 μM, insitu, 231): 16.6 | isoTOP-ABPP ratio P13667_C555 ([5]; 200 μM, insitu, 231): 20.0

O=C(CCl)NCCc1c[nH]c2ccccc12 [compound 13]
isoTOP-ABPP ratio P22307_C71 ([1]; 200 μM, insitu, 231): 4.9 | isoTOP-ABPP ratio P42166_C341 ([2]; 200 μM, insitu, 231): 1.3 | isoTOP-ABPP ratio P42166_C561 ([2]; 200 μM, insitu, 231): 1.2 | isoTOP-ABPP ratio, cysteine P42166_C629 ([2]; 200 μM, insitu, 231): 1.0 | isoTOP-ABPP ratio, cysteine P42166_C684 ([2]; 200 μM, insitu, 231): 1.2 | isoTOP-ABPP ratio P42166_C341 ([2]; 200 μM, insitu, ramos): 1.4 | isoTOP-ABPP ratio P42166_C561 ([2]; 200 μM, insitu, ramos): 1.0 | isoTOP-ABPP ratio Q9NQR4_C153 ([3]; 200 μM, insitu, 231): 6.2 | isoTOP-ABPP ratio Q9NQR4_C153 ([3]; 200 μM, insitu, ramos): 12.2 | isoTOP-ABPP ratio Q9Y3D0_C93 ([4]; 200 μM, insitu, ramos): 1.4 | isoTOP-ABPP ratio P13667_C206 ([5]; 200 μM, insitu, 231): 1.1 | isoTOP-ABPP ratio P13667_C555 ([5]; 200 μM, insitu, ramos): 2.0
